Biological target: Sphingosine 1-phosphate receptor 2 (Homo sapiens, UniProt O95136)
Test: Binding affinity to S1PR2 (unknown origin) assessed as dissociation constant measured for 60 secs by surface plasmon resonance assay

Sequence of Sphingosine 1-phosphate receptor 2 (O95136 whole entry): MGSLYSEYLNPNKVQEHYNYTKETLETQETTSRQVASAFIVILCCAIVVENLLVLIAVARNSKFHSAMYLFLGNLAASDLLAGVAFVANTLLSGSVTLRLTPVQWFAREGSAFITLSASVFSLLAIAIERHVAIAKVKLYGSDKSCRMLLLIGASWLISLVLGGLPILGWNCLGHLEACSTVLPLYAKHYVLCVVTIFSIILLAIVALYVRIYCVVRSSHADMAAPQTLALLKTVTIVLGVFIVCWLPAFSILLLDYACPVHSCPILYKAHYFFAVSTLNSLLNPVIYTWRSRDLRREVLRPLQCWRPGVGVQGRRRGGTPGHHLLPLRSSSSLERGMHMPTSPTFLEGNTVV

Row | koff [s⁻¹] | Structure (SMILES)
1 | 0.136 | Cn1ccc2c(-c3ccccc3)nc(NNC(=O)Nc3cc(Cl)nc(Cl)c3)nc21
2 | 0.116 | O=C(Nc1cc(Cl)nc(Cl)c1)Nc1cc2ccccn2n1
3 | 0.201 | O=C(Nc1cc(Cl)nc(Cl)c1)Nc1cc2ccc(-c3ccccc3)cn2n1
4 | 0.112 | COc1ccc(-c2ccc3cc(NC(=O)Nc4cc(Cl)nc(Cl)c4)nn3c2)cc1
5 | 0.133 | O=C(NNc1nc(Nc2ccccc2)nc(N2CCCC2)n1)Nc1cc(Cl)nc(Cl)c1
6 | 0.236 | CNc1cc(C)nc(NNC(=O)Nc2cc(Cl)nc(Cl)c2)n1
7 | 0.312 | COc1c(Cl)cc(NC(=O)Nc2cc(Cl)nc(Cl)c2)cc1Cl
8 | 0.219 | COc1cc(NC(=O)Nc2cc(Cl)nc(Cl)c2)cc(Cl)n1
9 | 0.102 | CCOc1cc(NC(=O)Nc2cc(Cl)nc(Cl)c2)cc(Cl)n1
10 | 0.119 | CC(C)Oc1cc(NC(=O)Nc2cc(Cl)nc(Cl)c2)cc(Cl)n1

Further lines, the compound ahead of its results:

Row | Structure (SMILES) | koff [s⁻¹]
11 | Cc1nn(C)c2nc(NNC(=O)Nc3cc(Cl)nc(Cl)c3)cc(C(C)C)c12 | 0.161
12 | CN(C)c1nc(NNC(=O)Nc2cc(Cl)nc(Cl)c2)nc2c1ccn2C | 0.102
13 | O=C(NNc1nc(N2CCOCC2)c2ccn(C3CC3)c2n1)Nc1cc(Cl)nc(Cl)c1 | 0.133
14 | Cc1cc(NC(=O)Nc2cc(Cl)nc(Cl)c2)cc(C)n1 | 0.146
15 | O=C(Nc1cc(Cl)cc(Cl)c1)Nc1cc(Cl)nc(Cl)c1 | 0.116
16 | CN1CCN(C(=O)Nc2cc(Cl)nc(Cl)c2)CC1 | 0.106
17 | Cc1cc(NC(=O)Nc2cc(Cl)nc(Cl)c2)n(C)n1 | 0.177
18 | O=C(Nc1ccnc(Cl)c1)Nc1cc(Cl)nc(Cl)c1 | 0.201
19 | O=C(Nc1cc(Cl)nc(Cl)c1)Nc1cc(Cl)nc(Cl)c1 | 0.697
20 | O=C(Nc1cc(Cl)nc(Cl)c1)Nc1cc(Cl)nc(OC2CCCC2)c1 | 0.179
